According to patent US20200230205A1, “COMPOSITIONS AND METHODS FOR TREATING MYELIN DISORDERS” (CASE WESTERN RESERVE UNIVERSITY, priority 2017, published 2020):

What was measured:
[1] = system: oligodendrocyte progenitor cells (OPCs); test: Ki-67 proliferation and TUNEL apoptosis of OPCs on aggrecan/laminin; type: cell-based, mouse; conditions: 2.5 μM peptide, 2 div, laminin 1 and aggrecan 2 μg/mL, vs control
Procedure: To assess proliferation, OPCs were plated on 24-well coverslips that were precoated with PLL, 1 μg/mL laminin, and 2 μg/mL aggrecan. OPCs were treated with vehicle, 2.5 μM ISP or SISP immediately upon plating for 2 days at 37° C. Coverslips were fixed and stained using the same method described in the immunocytochemistry section with Ki-67 (550609, BD Pharmingen, 1:500) and O4 (1:10). Coverslips were imaged and counted. To assess apoptosis, OPCs were cultured in the same fashion and incubated with vehicle or 1 μg/mL LPC for 2 hours at 2 days following vehicle, 2.5 μM ISP or SISP incubation. Coverslips were then fixed with PFA and methanol then stained using APO-BrdU TUNEL assay kit (A23210, ThermoFisher) and guidelines with an O/N incubation of the primary antibody at RT. Coverslips were additionally costained with DAPI (D9542, Sigma, 1:10,000) then imaged and counted.

MMP-10 = MMP-10 western blot of OPC conditioned media; type: cell-based, mouse; conditions: OPC CM, 2.5 μM peptide, same as vehicle
Procedure: To assess MMP-2 or 10 in OPC CM or lysates, OPCs were incubated on precoated PLL, aggrecan, and laminin as described above. OPCs were treated with vehicle, 2.5 μM ISP or SISP for 2 days at 37° C. CM was then harvested and concentrated using Milipore Ultracel YM-C centrifugal filter units at max speed (Eppendorf Centrifuge […]) for 30 minutes at 4° C. […] of concentrated CM was loaded into each lane. OPC lysates were assessed using western blot techniques described below with […] protein loaded from each group. Tissue samples or cerebellar slices or purified OPC cells were homogenized with RIPA lysis buffer and protein concentration was determined by Pierce BCA protein assay kit according to the manufacture instruction (Thermo Fisher). Then, equal amounts of protein were loaded to 15% SDS-PAGE gels, and electrophoretically transferred to PVDF membranes (Millipore). The membranes were blocked in 0.1% TPBS buffer with 5% non-fat milk for 1h at room temperature and probed with indicated primary antibodies overnight at 4° C. and followed by secondary antibody conjugated to horseradish peroxidase (HRP). […] Enhanced chemiluminescence was performed with a West Pico Kit (Thermo Fisher) and detected by FluorChem E system (ProteinSimple, USA). The density of bands was quantified using ImageJ software (NIH).

aggrecan (CS56) = test: CSPG degradation by OPC conditioned media (CS56 spot quantification and western blot of aggrecan); type: cell-based, mouse; conditions: for aggrecan GAG digestion (CS56 immunoblot): Exo1 10 μg/mL, GM6001 25 μM or OA-Hy 100 nM with 2.5 μM ISP
Procedure: (§1) CSPG gradients were prepared as described previously (Tom, V. J., et al. Studies on the Development and Behavior of the Dystrophic Growth Cone, the Hallmark of Regeneration Failure, in an In vitro Model of the Glial Scar and after Spinal Cord Injury.). 24-well glass coverslip were coated with poly-L-lysine and nitrocellulose, and a mixture of 700 μg/mL aggrecan (A1960 Sigma) and 10 μg/mL laminin (11243217001 Sigma) spotted on the coated coverslip. After drying, coated coverslips were then incubated with laminin at 37° C. for 3h. Purified OPCs were plated at a density of 10,000/coverslip and cultured in DMEM/F12 medium containing with N2, PDGF (20 ng/ml), FGF (20 ng/ml), NT-3 (5 ng/ml), CNTF (O1 ng/ml), Glutamine (200 mM). Coverslips were stained with CS-56 (C8035, Sigma, 1:500) and O4 antibodies (Hybridoma Core Cleveland Clinic, 1:10). O4-positive cells crossing the aggrecan border were counted for each spot. For CSPG gradient quantification, 1×10^6 OPCs were plated per well on PLL, 1 μg/mL laminin, and 2 μg/mL aggrecan coated 6-well plates. OPCs treated with vehicle, 2.5 μM ISP, or 2.5 μM SISP for 2 days at 37° C. CM was harvested and incubated with freshly made spots. Spots were incubated with CM for 2 days at 37° C. then stained with CS-56 and laminin (L9393, Sigma, 1:1000) antibodies and consistently imaged. Using ImageJ software (NIH), pixel intensities of the CS-56 or laminin spot rims were quantified using the same ROI. For cultured spinal cord explant, the spinal cords of cervical and thoracic of P1 mouse pups were chopped into 1-2 mm tissue pieces and transferred to the coverslip. Explants were cultured in DMEM/F12 medium with 15% FBS (Hyclone), O1 ng/ml PDGF (Sigma) and N2 supplement (Invitrogen). For ISP treatment, 2.5 uM ISP was added to the media at the time of plating. 25 μM GM6001 (2983, Tocris), 100 nM MMP-2 inhibitor (444244, Calbiochem), and/or 2.5 μM ISP or SISP was used.
CM was harvested from 1×10^6 OPCs incubated on PLL, 1 μg/mL laminin, and 2 μg/mL aggrecan coated 6-well plates. OPCs were treated with vehicle, 2.5 μM ISP, or 2.5 μM SISP in conjunction with 10 μg/mL Exo1 (ab120292, Abcam), or 25 μM GM6001 (364205, Calbiochem) for 2 days at 37° C. […] CM of each cell-strained group was incubated with 20 μg/mL aggrecan and/or 10 μg/mL laminin for 2 hours in lmL Eppendorf tubes at 37° C. As a positive control, OPC media was incubated with aggrecan and incubated in the same fashion. Western blots were then performed as described below with incubation against CS-56 and/or laminin antibodies.

[2] = system: organotypic cerebellar slice cultures; test: LPC-induced demyelination in mouse cerebellar slice cultures; type: cell-based; conditions: 25 μM GM6001 or 100 nM OA-Hy in conjunction with 2.5 μM ISP, 9 days
From the text: We carried out the cerebellar slice culture method as described previously (Zhang, H., et al. Central nervous system remyelination in culture—A tool for multiple sclerosis research. Experimental Neurology 230, 138-148 (2011)). Briefly, 300 μm-thick cerebellar slices were cut from P10-12 mouse cerebellum using a Leica vibrating microtome (Leica, VT1000S) and cultured in medium containing 50% basal medium eagle medium, 25% Heat-inactivated horse serum, 25% Hank's solution, 2.5% glucose, 1% glutamine and penicillin-streptomycin. After 4 days in vitro (DIV), 0.5 mg/ml LPC were added for 17-18h to induce demyelination. Slices were then incubated with 2.5 μM ISP for 8 days. For GM6001 experiments, 25 μM GM6001 (Tocris) and/or 2.5 μM ISP or SISP was incubated for 9 days. Remyelination was examined by semi-quantitative Western blot of MBP and immunofluorescence stain of MBP and NeuF200.
Slices were fixed with 4% PFA, delipidated, and washed three times in PBS, blocked in PBS containing 0.1% Triton X-100 and 5% normal goat serum and incubated with anti-MBP (SMI-99P, Covance, 1:300), and anti-NeuF200 (N4142, Sigma, 1:250) antibodies overnight at 4° C. The slices were then washed in PBS and incubated in Alexa Fluor-conjugated secondary antibodies (1:500, invitrogen) for 2h. Slices were mounted in Vectashield mounting medium with DAPI (Vector Laboratories) and analyzed using Leica DFC500 fluorescence microscope.

[3] = system: oligodendrocyte progenitor cells (OPCs); test: CSPG gradient crossing (spot) assay, OPC migration; type: cell-based, mouse; conditions: 25 μM GM6001 or 100 nM OA-Hy, even in the presence of ISP
Procedure: as §1

Compound	OPC proliferation (Ki67) [1]	MMP-10 secretion, western blot (MMP-10)	CS56 spot degradation (aggrecan (CS56); 25 μM GM6001 or 100 nM OA-Hy with 2.5 μM ISP)	aggrecan GAG digestion (CS56 immunoblot) (aggrecan (CS56))	colocalization of MBP and neurofilament+ axons [2]	OPC entry into the CSPG-rich area [3]
GRKKRRQRRRCIREDDSLMLYALAQEKKESNMHES [SISP, scrambled ISP control peptide, reference compound]	not significantly changed	equally low amounts	–	–	–	–
CNC(=O)[C@H](Cc1c[nH]c2ccccc12)NC(=O)[C@@H](CC(=O)NO)CC(C)C [GM6001]	–	–	additionally rescued CS56 spot degradation	partially rescued	decreased	effectively halted OPC entry
COC(=O)c1ccccc1NC(=O)c1ccc(F)cc1 [Exo1]	–	–	–	partially rescued aggrecan GAG digestion	–	–
